The values below come from patent publication US20250361230A1, “LATS Inhibitors and Uses Thereof” (The USA, as Represented by the Secretary, Dept. of Heath …, priority 2022, published 2025).

The target in one experiment is T1, LATS1 (Homo sapiens, UniProt O95835).
T1 sequence (O95835 1-1130): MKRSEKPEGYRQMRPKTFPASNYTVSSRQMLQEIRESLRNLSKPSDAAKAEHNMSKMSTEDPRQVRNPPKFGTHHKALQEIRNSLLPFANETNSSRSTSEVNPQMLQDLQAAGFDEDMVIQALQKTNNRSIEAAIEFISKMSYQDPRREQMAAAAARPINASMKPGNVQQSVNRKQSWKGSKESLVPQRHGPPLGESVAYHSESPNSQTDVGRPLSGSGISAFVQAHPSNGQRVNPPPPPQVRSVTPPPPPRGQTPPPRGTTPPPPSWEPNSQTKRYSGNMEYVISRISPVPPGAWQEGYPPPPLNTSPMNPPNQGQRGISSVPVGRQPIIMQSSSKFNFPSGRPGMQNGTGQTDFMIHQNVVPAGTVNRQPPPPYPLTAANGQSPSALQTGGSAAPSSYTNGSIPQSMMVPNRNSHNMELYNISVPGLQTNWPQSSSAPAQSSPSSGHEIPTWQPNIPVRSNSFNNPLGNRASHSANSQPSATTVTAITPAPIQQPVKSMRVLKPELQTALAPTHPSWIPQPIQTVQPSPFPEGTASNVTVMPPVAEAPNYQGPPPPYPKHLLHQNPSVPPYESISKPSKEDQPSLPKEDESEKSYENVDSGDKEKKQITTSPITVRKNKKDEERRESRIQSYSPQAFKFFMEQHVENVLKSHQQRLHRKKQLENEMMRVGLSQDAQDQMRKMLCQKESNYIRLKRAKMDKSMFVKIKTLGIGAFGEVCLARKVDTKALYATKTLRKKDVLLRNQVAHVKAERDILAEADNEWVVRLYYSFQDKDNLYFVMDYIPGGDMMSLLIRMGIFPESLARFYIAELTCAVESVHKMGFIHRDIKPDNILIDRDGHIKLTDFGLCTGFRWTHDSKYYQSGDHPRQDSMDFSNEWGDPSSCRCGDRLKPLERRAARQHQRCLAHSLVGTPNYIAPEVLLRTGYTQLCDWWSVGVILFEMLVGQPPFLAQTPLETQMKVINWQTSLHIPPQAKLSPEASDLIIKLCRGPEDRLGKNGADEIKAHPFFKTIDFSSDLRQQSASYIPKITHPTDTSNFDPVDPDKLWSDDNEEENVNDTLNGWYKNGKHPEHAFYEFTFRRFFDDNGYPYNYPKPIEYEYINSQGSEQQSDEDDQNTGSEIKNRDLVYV
Briefly: RBC HotSpot kinase assay (33P-ATP, P81 filter-binding), LATS1. It is filed as biochemical. The settings on record: Table 28, biochemical kinase assay; read-out: LATS1 IC50. The essentials:
(§1)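 IC50 in nM was derived from 10-point, single-replicate titrations. Read-out was radiometric P81 filter binding following a 2 h room-temperature reaction with 33P-ATP, after 20 min compound preincubation.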

The target of a further experiment is T2, LATS2 (Homo sapiens, UniProt Q9NRM7).
T2 sequence (Q9NRM7 1-1088): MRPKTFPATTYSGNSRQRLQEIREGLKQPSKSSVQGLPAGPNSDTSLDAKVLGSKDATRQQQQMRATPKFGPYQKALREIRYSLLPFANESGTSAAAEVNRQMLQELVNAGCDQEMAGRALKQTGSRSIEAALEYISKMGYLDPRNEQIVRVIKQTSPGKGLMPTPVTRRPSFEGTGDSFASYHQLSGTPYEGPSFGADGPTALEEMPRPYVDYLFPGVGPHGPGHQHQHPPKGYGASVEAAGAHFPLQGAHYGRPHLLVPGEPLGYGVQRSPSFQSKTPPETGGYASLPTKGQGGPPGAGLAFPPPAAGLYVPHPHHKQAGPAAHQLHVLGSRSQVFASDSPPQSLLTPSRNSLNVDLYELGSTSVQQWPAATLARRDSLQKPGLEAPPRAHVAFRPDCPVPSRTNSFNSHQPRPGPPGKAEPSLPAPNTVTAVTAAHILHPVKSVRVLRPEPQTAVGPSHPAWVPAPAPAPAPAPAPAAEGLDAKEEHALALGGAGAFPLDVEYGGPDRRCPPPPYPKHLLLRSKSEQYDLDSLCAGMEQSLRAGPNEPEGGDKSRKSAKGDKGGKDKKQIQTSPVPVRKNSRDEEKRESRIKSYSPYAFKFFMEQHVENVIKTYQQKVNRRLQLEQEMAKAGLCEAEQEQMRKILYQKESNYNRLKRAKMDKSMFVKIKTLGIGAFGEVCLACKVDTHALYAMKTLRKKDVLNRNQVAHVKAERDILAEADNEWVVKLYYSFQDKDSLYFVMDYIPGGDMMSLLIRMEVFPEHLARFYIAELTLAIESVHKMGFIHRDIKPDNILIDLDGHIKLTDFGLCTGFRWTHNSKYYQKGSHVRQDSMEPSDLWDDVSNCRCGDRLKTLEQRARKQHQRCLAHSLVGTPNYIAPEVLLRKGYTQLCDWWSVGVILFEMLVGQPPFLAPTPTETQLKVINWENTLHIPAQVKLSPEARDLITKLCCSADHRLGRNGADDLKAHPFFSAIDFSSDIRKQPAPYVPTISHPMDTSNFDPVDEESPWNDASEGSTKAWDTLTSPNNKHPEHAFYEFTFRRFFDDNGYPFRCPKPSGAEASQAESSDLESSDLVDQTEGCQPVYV
Briefly: RBC HotSpot kinase assay (33P-ATP, P81 filter-binding), LATS2. It is filed as biochemical. The following applies: Table 28, biochemical kinase assay; read-out: LATS2 IC50. The gist of the method:
as §1

pIC50: −log10 of the molar value.

For `C[C@@H]1CNC[C@H](C)[C@@]1(O)c1ccc(-c2ccnc3[nH]cc(F)c23)cc1Cl` [Compound 1, (3S,4S,5R)-4-(2-chloro-4-(3-fluoro-1H-pyrrolo[2,3-b]pyridin-4-yl)phenyl)-3,5-dimethylpiperidin-4-ol], the pIC50 on LATS1 was 7.95; on LATS2, 7.84.
With `C[C@@H]1CNC[C@H](C)[C@@]1(O)c1ccc(-c2ccnc3[nH]cc(F)c23)cc1` [Compound 2, (3R,4s,5S)-4-(4-(3-fluoro-1H-pyrrolo[2,3-b]pyridin-4-yl)phenyl)-3,5-dimethylpiperidin-4-ol], the pIC50 on LATS1 is 7.80; at LATS2, 7.90.
In the case of `C[C@@H]1CNC[C@H](C)[C@@]1(O)c1ccc(-c2ccnc3[nH]cc(F)c23)cc1F` [Compound 7, (3S,4s,5R)-4-(2-fluoro-4-(3-fluoro-1H-pyrrolo[2,3-b]pyridin-4-yl)phenyl)-3,5-dimethyl piperidin-4-ol], the pIC50 was 7.80 on LATS1 and 8.20 on LATS2.
Turning to `C[C@@H]1CNC[C@H](C)[C@@]1(O)c1ccc(-c2ccnc3[nH]cc(F)c23)nc1` [Compound 8, (3S,4s,5R)-4-(6-(3-fluoro-1H-pyrrolo[2,3-b]pyridin-4-yl)pyridin-3-yl)-3,5-dimethylpiperidin-4-ol], the values for the pIC50 on LATS1 and at LATS2 were 7.28 and 6.69, respectively.
Consider `Cc1cc(-c2ccnc3[nH]cc(F)c23)ccc1[C@@]1(O)[C@H](C)CNC[C@@H]1C` [Compound 9, (3S,4s,5R)-4-(4-(3-fluoro-1H-pyrrolo[2,3-b]pyridin-4-yl)-2-methylphenyl)-3,5-dimethylpiperidin-4-ol], for which the pIC50 at LATS1 is 8.03; on LATS2, 8.18.
For `C[C@@H]1CNC[C@H](C)[C@@]1(O)c1c(F)cc(-c2ccnc3[nH]cc(F)c23)cc1F` [Compound 13], the pIC50 at LATS1 is 8.07; at LATS2, 8.14.
In the case of `C[C@@H]1CNC[C@H](C)[C@@]1(O)c1ccc(-c2ccnc3[nH]cc(F)c23)cc1OC(F)(F)F` [Compound 14, (3S,4s,5R)-4-(4-(3-fluoro-1H-pyrrolo[2,3-b]pyridin-4-yl)-2-(trifluoromethoxy)phenyl)-3,5-dimethylpiperidin-4-ol], the pIC50 at LATS1 was 8.27; on LATS2 it was 8.26.
`C[C@@H]1CN(Cc2ccccn2)C[C@H](C)[C@@]1(O)c1c(F)cc(-c2ccnc3[nH]cc(F)c23)cc1F` [Compound 17, (3S,4s,5R)-4-(2,6-difluoro-4-(3-fluoro-1H-pyrrolo[2,3-b]pyridin-4-yl)phenyl)-3,5-dimethyl-1-(pyridin-2-ylmethyl)piperidin-4-ol]: the pIC50 at LATS1 is 7.96; at LATS2 it was 7.92.
For `C[C@@H]1CN(C)C[C@H](C)[C@@]1(O)c1cnc(-c2ccnc3[nH]cc(F)c23)cc1Cl` [Compound 22, (3S,4s,5R)-4-(4-chloro-6-(3-fluoro-1H-pyrrolo[2,3-b]pyridin-4-yl)pyridin-3-yl)-1,3,5-trimethylpiperidin-4-ol], the pIC50 at LATS1 was 8.96; at LATS2, 8.39.
As to `Cc1cc(-c2ccnc3[nH]cc(F)c23)ccc1[C@@]1(O)[C@H](C)CN(C2COC2)C[C@@H]1C` [Compound 24, (3S,4s,5R)-4-(4-(3-fluoro-1H-pyrrolo[2,3-b]pyridin-4-yl)-2-methylphenyl)-3,5-dimethyl-1-(oxetan-3-yl)piperidin-4-ol], the pIC50 at LATS1 and at LATS2 was 8.24 throughout.
For the compound `Cc1cc(-c2ccnc3[nH]cc(F)c23)ccc1[C@@]1(O)[C@H](C)CN(C(C)C)C[C@@H]1C` [Compound 29, (3S,4s, 5R)-4-(4-(3-fluoro-1H-pyrrolo[2,3-b]pyridin-4-yl)-2-methylphenyl)-1-isopropyl-3,5-dimethylpiperidin-4-ol], the pIC50 is 8.89 on LATS1 and 8.66 at LATS2.
For `Cc1cc(-c2ccnc3[nH]cc(F)c23)cc(F)c1C1(O)[C@H](C)CN(C2COC2)C[C@@H]1C` (stereo partly drawn) [Compound 30, (3S,5R)-4-(2-fluoro-4-(3-fluoro-1H-pyrrolo[2,3-b]pyridin-4-yl)-6-methylphenyl)-3,5-dimethyl-1-(oxetan-3-yl)piperidin-4-ol], the pIC50 at LATS1 is 8.23; on LATS2, 8.05.

The term pIC50 denotes the negative decadic logarithm of the IC50, by convention in mol/L.
